In EP0539180A1, “Antiviral agents” (SANWA KAGAKU KENKYUSHO CO., LTD., priority 1991, dated 1993):
Where two headings read alike, the source gives them in different places. Marks after values point to notes of the source that are not given here.

Tests used:
GMK cells = test: Cytotoxicity, microscopically observed in GMK cell cultures; format: cell-based, green monkey
HSV-1 (Miyama strain) [1] = test: In vitro antiviral activity against HSV-1 (CPE inhibition, virus titer reduction) in GMK cells; format: cell-based; conditions: read-out: Antiviral Activity (ΔTCID50 (log10))
Description: The virus titer (TCID₅₀) was determined from CPE of virus infected culture. Antiviral effects of the test compounds were calculated from TCID₅₀ values of the test compounds treated and control cultures and represented by ΔTCID₅₀ (log₁₀).
In this regard, it is noted that prior to be added to the incubation systems, the compounds were dissolved in MEM or ethanol media at 10 mg/ml concentrations, and diluted with MEM media supplemented with 1% fetal bovine serum.

HSV-1 (Miyama strain) [2] = test: In vivo anti-HSV-1 activities in intraperitoneally infected mice (Testing 4); set-up: species or system BALB/c mice; conditions: mice infected with 322 PFU HSV-1; for Survival Ratios after 21 days (%): control 0; for Mean Survival Days: control 6.9
HSV-1 (Miyama strain) [3] = test: In vivo anti-HSV-1 activities in intraperitoneally infected mice (Testing 5); set-up: species or system BALB/c mice; conditions: mice infected with 322 PFU HSV-1; for Survival Ratios after 21 days (%): control 0; for Mean Survival Days: control 6.9, *: P<0.05 (U Test)
[4] = 5 mg/kg intraperitoneally for five days
[5] = 20 mg/kg intraperitoneally for five days
[6] = Human alphaherpesvirus 1, 10 μg/ml, HSV-1 (Miyama strain), GMK cells
[7] = Human alphaherpesvirus 1, 50 μg/ml, HSV-1 (Miyama strain), GMK cells
[8] = 10 mg/kg intraperitoneally for five days
[9] = 40 mg/kg intraperitoneally for five days

Row | SMILES | cytotoxicities (GMK cells; 100 μg/ml) | log reduction at 10 µg/mL (HSV-1 (Miyama strain) [1]; Human alphaherpesvirus 1, GMK) | log reduction at 50 µg/mL (HSV-1 (Miyama strain) [1]; Human alphaherpesvirus 1, GMK) | log reduction at 100 µg/mL (HSV-1 (Miyama strain) [1]; Human alphaherpesvirus 1, GMK) | also measured
1 | Clc1cccc(N2CCNCC2)c1 [Compound 2, 1-(m-chlorophenyl)piperazine hydrochlorate] | (±±) | 0.46 | 1.23 |  | 
2 | Clc1ccc(N2CCNCC2)cc1 [Compound 3, 1-(p-chlorophenyl)piperazine hydrochlorate] | (±±) | 0 | 1.5 |  | 
3 | COc1ccccc1N1CCNCC1 [Compound 4, 1-(o-methoxyphenyl)piperazine hydrochlorate] | (+) | 0.56 | 1.56 | 2.5 | 
4 | Fc1ccccc1N1CCNCC1 [Compound 5, 1-(o-fluorophenyl)piperazine hydrochlorate] | (+) | 0.33 | 1.33 | 1.56 | 
5 | Fc1ccc(N2CCNCC2)cc1 [Compound 6, 1-(p-fluorophenyl)piperazine hydrochlorate] | (+) | 0 | 0.5 | 1.33 | 
6 | c1ccc(N2CCNCC2)cc1 [Compound 7, 1-phenylpiperazine] | (+) |  |  | 0.83 | 
7 | c1ccc(N2CCCCC2)cc1 [Compound 8, 1-phenylpiperidine] | (+) |  |  | 0.5 | 
8 | COc1ccccc1N1CCN(CCN)CC1 [Compound 9, 4-(aminoethyl)-1-(o-methoxyphenyl)piperazine] |  |  |  |  | Survival Ratios after 21 days (%) (HSV-1 (Miyama strain) [2]; [4]): 70%; Mean Survival Days (HSV-1 (Miyama strain) [2]; [4]): 17.5* Days; Survival Ratios after 21 days (%) (HSV-1 (Miyama strain) [2]; [5]): 50%; Mean Survival Days (HSV-1 (Miyama strain) [2]; [5]): 10.9* Days; log reduction at 10 µg/mL (HSV-1 (Miyama strain) [1]; [6]): 0.87; log reduction at 50 µg/mL (HSV-1 (Miyama strain) [1]; [7]): 1.8; log reduction at 100 µg/mL (HSV-1 (Miyama strain) [1]; Human alphaherpesvirus 1, 100 μg/ml, HSV-1 (Miyama strain), GMK cells): 2.53
9 | CC[C@]12CCCN3CCc4c(n(c5ccccc45)C(=NOCC(O)CN4CCN(c5ccccc5OC)CC4)C1)[C@@H]32 (stereo partly drawn) [Compound 10] |  |  |  |  | cytotoxicities (GMK cells; 50 μg/ml): (±); Survival Ratios after 21 days (%) (HSV-1 (Miyama strain) [3]; [4]): 50%; Mean Survival Days (HSV-1 (Miyama strain) [3]; [4]): 15.4* Days; Survival Ratios after 21 days (%) (HSV-1 (Miyama strain) [3]; [8]): 60%; Mean Survival Days (HSV-1 (Miyama strain) [3]; [8]): 15.4* Days; Survival Ratios after 21 days (%) (HSV-1 (Miyama strain) [3]; [5]): 50%; Mean Survival Days (HSV-1 (Miyama strain) [3]; [5]): 16.4* Days; Survival Ratios after 21 days (%) (HSV-1 (Miyama strain) [3]; [9]): 50%; Mean Survival Days (HSV-1 (Miyama strain) [3]; [9]): 15.5* Days; log reduction at 10 µg/mL (HSV-1 (Miyama strain) [1]; [6]): > 3; log reduction at 50 µg/mL (HSV-1 (Miyama strain) [1]; [7]): > 2.17
10 | FC(F)(F)c1ccccc1N1CCNCC1 [Compound 11] | (±) | 2 | > 4 | < 4 | 
11 | Clc1cccc(Cl)c1N1CCNCC1 [Compound 12] | (±) | 1 | 2.67 | > 3.3 | 
